Test results: the NIST ThermoML archive (doi:10.1016/j.jct.2005.02.003)

Experiment: molar heat capacity at constant pressure
Settings: 101.33 kPa

CC(C)COC(C)(C)C [isobutyl tert-butyl ether]
Settings | molar heat capacity at constant pressure [J/K/mol]
5 K, Crystal | 0.38
7.68 K, Crystal | 1.339
8.33 K, Crystal | 1.743
8.97 K, Crystal | 2.217
9.61 K, Crystal | 2.779
10 K, Crystal | 3.042
10.26 K, Crystal | 3.32
11.02 K, Crystal | 4.139
11.92 K, Crystal | 5.166
12.83 K, Crystal | 6.289
13.74 K, Crystal | 7.45
14.65 K, Crystal | 8.714
15 K, Crystal | 9.221
15.57 K, Crystal | 10.02
16.48 K, Crystal | 11.42
17.41 K, Crystal | 12.82
18.34 K, Crystal | 14.27
19.27 K, Crystal | 15.69
20 K, Crystal | 16.85
20.2 K, Crystal | 17.2
21.22 K, Crystal | 18.77
22.29 K, Crystal | 20.45
23.35 K, Crystal | 22.1
24.42 K, Crystal | 23.8
25 K, Crystal | 24.7
25.49 K, Crystal | 25.53
26.55 K, Crystal | 27.09
27.63 K, Crystal | 28.56
28.7 K, Crystal | 30.12
29.77 K, Crystal | 31.74
30 K, Crystal | 32.07
30.84 K, Crystal | 33.37
31.91 K, Crystal | 34.71
32.98 K, Crystal | 36.13
34.05 K, Crystal | 37.59
35 K, Crystal | 38.76
35.12 K, Crystal | 38.89
36.19 K, Crystal | 40.25
37.26 K, Crystal | 41.63
38.34 K, Crystal | 42.83
39.41 K, Crystal | 44.07
40 K, Crystal | 44.8
40.47 K, Crystal | 45.31
41.54 K, Crystal | 46.53
42.6 K, Crystal | 47.83
43.66 K, Crystal | 48.91
44.72 K, Crystal | 50.25
45 K, Crystal | 50.39
45.78 K, Crystal | 51.18
46.84 K, Crystal | 52.39
47.9 K, Crystal | 53.45
48.96 K, Crystal | 54.66
50 K, Crystal | 55.71
50.01 K, Crystal | 55.57
51.07 K, Crystal | 56.57
52.12 K, Crystal | 57.81
53.17 K, Crystal | 59.02
54.22 K, Crystal | 60.27
55 K, Crystal | 60.91
55.27 K, Crystal | 61.56
56.31 K, Crystal | 63.16
57.36 K, Crystal | 64.51
58.41 K, Crystal | 64.56
59.46 K, Crystal | 65.29
60 K, Crystal | 66.03
63.63 K, Crystal | 70.22
64.68 K, Crystal | 70.75
65 K, Crystal | 71.08
65.72 K, Crystal | 72.16
66.76 K, Crystal | 73.11
67.8 K, Crystal | 74.04
68.84 K, Crystal | 74.44
69.88 K, Crystal | 75.46
70 K, Crystal | 76.09
70.92 K, Crystal | 76.66
71.95 K, Crystal | 77.53
74.01 K, Crystal | 79.84
75 K, Crystal | 81.05
75.04 K, Crystal | 81.32
76.07 K, Crystal | 82.23
77.1 K, Crystal | 83.09
79.16 K, Crystal | 85.64
80 K, Crystal | 85.97
80.19 K, Crystal | 86.55
80.42 K, Glass | 91.54
80.56 K, Crystal | 86.3
81.22 K, Crystal | 87.3
81.39 K, Glass | 92.71
82.25 K, Crystal | 88.55
82.32 K, Glass | 93.45
83.28 K, Crystal | 89.21
83.29 K, Glass | 95.2
83.57 K, Crystal | 89.05
84.28 K, Glass | 95.95
85 K, Crystal | 90.88
85.22 K, Glass | 97.36
86.13 K, Glass | 97.2
86.51 K, Crystal | 92.54
87.04 K, Glass | 98.86
87.51 K, Crystal | 93.29
87.98 K, Glass | 100.5
88.51 K, Crystal | 93.95
88.93 K, Glass | 101.4
89.5 K, Crystal | 95.12
89.88 K, Glass | 102.9
90 K, Crystal | 95.78
